Read-outs that look alike come from different tables or passages of the source.
Tests used:
E. faecium Com15 = assay: MIC, microbial susceptibility assay; type: cell-based; conditions: n=2
S. aureus SH1000 = assay: MIC, microbial susceptibility assay; type: cell-based; conditions: n=2
A. baumannii ATCC17978 [1] = assay: MIC, microbial susceptibility assay; type: cell-based, Acinetobacter baumannii; conditions: n=2
P. aeruginosa PA01 = assay: MIC, microbial susceptibility assay; type: cell-based, Pseudomonas aeruginosa; conditions: n=2
E. cloacae 0150 = assay: MIC, microbial susceptibility assay; type: cell-based, Enterobacter cloacae; conditions: n=2
[2] = system: S. typhimurium 0635 (mcr-1); assay: MIC, microbial susceptibility assay; type: cell-based; conditions: S. typhimurium 0635, mcr-1 clinical isolate; n=2
[3] = system: A. baumannii ATCC17978 (pMQ124xlab1-mcr-1); assay: MIC, microbial susceptibility assay; type: cell-based, Acinetobacter baumannii; conditions: n=2
[4] = system: A. baumannii SM1536 (pMQ124xlab1-mcr-1); assay: MIC, microbial susceptibility assay; type: cell-based, Acinetobacter baumannii
[5] = system: A. baumannii 0301 (mcr-1); assay: MIC, microbial susceptibility assay; type: cell-based, Acinetobacter baumannii
A. baumannii 0287 = assay: MIC, microbial susceptibility assay; type: cell-based, Acinetobacter baumannii; conditions: XDR A. baumannii 0287, mcr-1 −
[6] = system: A. baumannii 0287 (mcr-1 +); assay: MIC, microbial susceptibility assay; type: cell-based, Acinetobacter baumannii; conditions: XDR A. baumannii 0287, mcr-1 +
A. baumannii 0295 = assay: MIC, microbial susceptibility assay; type: cell-based, Acinetobacter baumannii; conditions: XDR A. baumannii 0295, mcr-1 −
[7] = system: A. baumannii 0295 (mcr-1 +); assay: MIC, microbial susceptibility assay; type: cell-based, Acinetobacter baumannii; conditions: XDR A. baumannii 0295, mcr-1 +
A. baumannii 0286 = assay: MIC, microbial susceptibility assay; type: cell-based, Acinetobacter baumannii; conditions: XDR A. baumannii 0286, mcr-1 −
A. baumannii 0282 = assay: MIC, microbial susceptibility assay; type: cell-based, Acinetobacter baumannii; conditions: XDR A. baumannii 0282, mcr-1 −
A. baumannii 0296 = assay: MIC, microbial susceptibility assay; type: cell-based, Acinetobacter baumannii; conditions: XDR A. baumannii 0296, mcr-1 −
[8] = system: pairs of colistin sensitive and resistant strains of K. pneumoniae and A. baumannii (mcr-1 plasmid); type: cell-based
HT29 cells = assay: MTT cytotoxicity assay; type: cell-based, human; conditions: 48 h incubation
[9] = system: A. baumannii-SM1536-mcr-1; assay: Neutropenic thigh infection model; type: in vivo, Acinetobacter baumannii; conditions: neutropenic mice, 20 mg/kg subcutaneous, 24 h
A. baumannii-0301-mcr-1 = assay: Neutropenic thigh infection model; type: in vivo, Acinetobacter baumannii; conditions: neutropenic mice, 20 mg/kg subcutaneous, 24 h
[10] = Pharmacokinetics assessment, plasma; type: in vivo; conditions: mice, single subcutaneous dose 10 mg/kg
A. baumannii ATCC17978 [11] = assay: CHIR-090 inhibition assay, growth curves; type: cell-based, Acinetobacter baumannii
K. pneumoniae 10031 = conditions: n=2
[12] = system: K. pneumoniae 0497 (mcr-1); conditions: K. pneumoniae 0497, mcr-1 clinical isolate; n=2
K. pneumoniae ATCC13883 = conditions: n=2
[13] = system: K. pneumoniae ATCC13883 (pMQ124-mcr-1)
[14] = system: E. cloacae ATCC13047 (ΔphoP/Q); conditions: E. cloacae ATCC13047 (ΔphoP/Q); n=2
[15] = system: E. cloacae ATCC13047 (ΔphoP/Q+phoP/Q)
A. baumannii 0301 = conditions: lipid analog table
N. meningitidis 13090 = conditions: eptA intrinsic resistance
M. osloensis 10973 = conditions: eptA intrinsic resistance
P. vulgaris 49132 = conditions: Proteus vulgaris, intrinsically colistin resistant (L-Ara4N)

In the case of colistin, the MIC (E. faecium Com15) is reported as >128 µg/mL, the MIC (S. aureus SH1000) is reported as >128 µg/mL and the MIC (A. baumannii ATCC17978 [1]; A. baumannii 17978, ESKAPE panel) is reported as 1 µg/mL. It also gave an MIC (A. baumannii ATCC17978 [1]; A. baumannii ATCC17978, mcr-1 engineered pairs) of 1 µg/mL, an MIC (P. aeruginosa PA01) of 1 µg/mL and an MIC (E. cloacae 0150) of 1 µg/mL. For the same substance, the MIC [2] was 16 µg/mL, the MIC [3] was 32 µg/mL and the MIC ([4]; A. baumannii SM1536 (pMQ124xlab1-mcr-1), n=2) was 128 µg/mL. The “Fold increase in MIC” value ([4]; A. baumannii SM1536 upon introduction of mcr-1) was 256, the MIC ([5]; A. baumannii 0301 (mcr-1), lipid analog table) was >128 µg/mL and the “Fold increase in MIC” value ([5]; A. baumannii 0301 upon introduction of mcr-1) was >512. The MIC ([5]; A. baumannii-0301 transformed with mcr-1 (PDR strain)) was > 64 µg/mL, the MIC (A. baumannii 0287) was 0.5 µg/mL and the MIC [6] was 64 µg/mL. For the same substance, the MIC (A. baumannii 0295) was 0.25 µg/mL, the MIC [7] was >128 µg/mL and the MIC (A. baumannii 0286) was 1 µg/mL. The MIC (A. baumannii 0282) was 0.5 µg/mL, the MIC (A. baumannii 0296) was 0.25 µg/mL and the “increase in MIC upon mcr-1 expression” value [8] was ≥ 32 fold. For the same substance, the “cytotoxicity to human cells, IC50” value (HT29 cells) was > 512 µg/mL, the “bacterial burden in thigh relative to initial infection” value [9] was “did not reduce the bacterial burden below the level of the initial infection” and the “bacterial burden in thigh relative to initial infection” value (A. baumannii-0301-mcr-1) was “did not reduce the bacterial burden below the level of the initial infection”. The “plasma drug exposure (pharmacokinetic profile)” value [10] was “parity in plasma drug exposure”, the “A. baumannii growth with antibiotic plus CHIR-090” value (A. baumannii ATCC17978 [11]; antibiotic at 10x MIC with LpxC inhibitor CHIR-090, 48 h) was “rescued A. baumannii growth” and the “A. baumannii growth with antibiotic alone” value (A. baumannii ATCC17978 [11]; concentrations above MIC (10x MIC), 48 h) was “completely abrogated A. baumannii growth”. It also gave an MIC (K. pneumoniae 10031) of 0.5 µg/mL, an MIC [12] of 32 µg/mL and an MIC (K. pneumoniae ATCC13883) of 1 µg/mL. For the same substance, the “Fold increase in MIC” value ([13]; K. pneumoniae 13883 upon introduction of mcr-1) was 64, the MIC ([13]; K. pneumoniae ATCC13883 (pMQ124-mcr-1), n=2) was 64 µg/mL and the MIC (A. baumannii SM1536; lipid analog table) was 0.5 µg/mL. The MIC (A. baumannii SM1536; n=2) was 0.5 µg/mL, the MIC [14] was 1 µg/mL and the MIC ([15]; E. cloacae ATCC13047 (ΔphoP/Q+phoP/Q), n=2) was 32 µg/mL. For the same substance, the “Fold increase in MIC” value ([15]; E. cloacae ATCC13047 upon introduction of phoP/Q) was 32, the “susceptibility of strain” value ([15]; E. cloacae phoP/Q deletion rescued with phoP/Q plasmid) was “resistant” and the MIC (A. baumannii 0301) was 0.25 µg/mL. For the same substance, the MIC (N. gonorrhoeae 49226) was >128 µg/mL, the MIC (N. meningitidis 13090) was 128 µg/mL and the MIC (M. osloensis 10973) was 8 µg/mL. The MIC (P. vulgaris 49132) was > 128 µg/mL.

Reference: PMC10321319 (Nature, 2022)
